Measurements from patent publication US20130136836A1, “Taste-Masking Compositions, Sweetener Compositions and Consumable Product Compositions Containing the Same” (Nutrinova Nutrition Specialties & Food Ingredients GmbH, priority 2011, published 2013).

Legend:
[1] = test system: panel of trained sensory evaluators; assay: Taste and spit assay, descriptive taste impression versus base samples, panel of 4 trained sensory evaluators (Examples 3 to 13); assay type: in vivo, human; settings: for further effect added to the composition of the invention: benzaldehyde 0.02 wppm, below its threshold
Experimental: All tests were conducted under controlled and standardized conditions.
(§1) The samples were prepared by a trained laboratory assistant.
35 ml of the samples were served at room temperature in clear plastic cups.
The following samples comprising a composition of the invention were tested for their ability to improve the taste of artificial sweeteners.
All samples were tested in duplicate and evaluated at least 3 different concentrations in comparison to 3 base samples (samples 1 to 3).
The panelists were asked to evaluate and to describe the taste impression of the samples 4 to 13 containing a sweetener composition comprising acesulfame potassium, sucralose and a composition of the invention, e.g. bitter aftertaste, creaminess, fullness and character of the sweeteners in each case in comparison to the base samples 1 to 3.
The results of the taste and spit assay are based in each case on a qualitative evaluation of the differences between the samples.

[2] = test system: panel of trained sensory evaluators; assay: Taste and spit assay with regard to sweetness in the aftertaste, panel of 11 trained sensory evaluators (Example 2); assay type: in vivo, human; settings: 11 panelists; 35 ml at 6.0-8.0 °C; after 2 minutes; qualitative comparison of three samples; FIG. 2
Experimental: Again the panelists are given samples.
Air was constantly exchanged.
as §1
The panel used the sweetness scale anchored by three concentrations of sucrose:
Sweetness was assessed with the 1st sip (max. 30 ml, min of 15 ml) and scored in the aftertaste (after 2 minutes).
All samples were tested in duplicate.

## O=Cc1ccccc1 [Benzaldehyde, benzaldehyde]
[1]; in sample 12 (with naringin, syringaldehyde, massoia lactone, whiskey lactone)
  further effect added to the composition of the invention: did not add any further effect
[1]; in sample 13 (with naringin, 4-methoxy salicylaldehyde, lactones, amino acids; sucralose 75 wppm)
  further effect added to the composition of the invention: did not add any further effect

## OC[C@H]1O[C@@](CO)(O[C@H]2O[C@H](CO)[C@@H](O)[C@H](O)[C@H]2O)[C@@H](O)[C@@H]1O [saccharose]
[2]
  sweetness in the aftertaste: less sweet in the aftertaste than acesulfame potassium and sucralose

## delta-undecalactone
[1]; delta-undecalactone 0.0388 wppm in Sample 14, replacing massoia lactone, 4 panelists
  taste impression of the lactone in the composition: not being too volatile and as adding a creamy taste, and as improving the total composition
